Assay results: patent publication US20170112748A1, “N-ACYLPEPTIDE DERIVATIVES AND THEIR USES” (NeoStrata Company, Inc., priority 2012, published 2017)
Peptide text beside a SMILES is read from it.

What was measured:
[1] = tested on: MB231 breast cancer cells; conditions: summary table
Description: A typical in vitro screen for anti-tumor or anti-cancer effects was carried out as follows.
An aliquot of 2,000 MB231 breast cancer cells (breast carcinoma cells) in 100 μl DMEM complete media (Sigma Chemical Co.) was plated in a 96 well plate containing at a concentration of 20 μg/ml a test substance or control water. To measure proliferation of the cancer cells, an aliquot of 20 μl of MTS reagent (Promega Co.) was added to each well and the cells were incubated at 37° C. for a total of three days. The cells rapidly metabolized MTS reagent and the metabolized MTS reagent was measured at 490 nm at the end of days 1, 2 and 3. The reading was proportional to the number of cancer cells. The decrease in absorbance at each time point indicated fewer cancer cells. At the end of day 3, the decrease in absorbance with respect to the control indicated the inhibition by the test substance.

[2] = topical treatment of bilateral inter-metacarpal atrophy of hands; assay type: in vivo, human; conditions: Example 23: subject, 2% (w/v) in EP73 two to three times daily, three weeks
Text: A subject had bilateral inter-metacarpal atrophy of both hands with certain restrictions of hand movements. The subject topically applied two to three times daily N-Ac-L-Tyr-L-Tyr-L-Tyr-OEt, 2% (w/v) in EP73 on the back of their left hand, and vehicle control EP73 on the back of their right hand for three weeks.
The subject now, topically applied twice daily N-Ac-L-Tyr-L-Tyr-L-Tyr-NH2, 1% (w/v) in WEP442 on the back of their left hand as a mantenace therapy.

[3] = topical treatment of telangiectatic rosacea, clinical evaluation; assay type: in vivo, human; conditions: Example 22: subject, face, 1% (w/v) in WEP442 twice daily, two weeks
Text: A subject had rosacea on their face with erythema, inflammation and dilated blood vessels, described as telangiectatic rosacea. The subject topically applied twice daily N-Ac-L-Tyr-L-Tyr-L-Tyr-OEt, 1% (w/v) in WEP442 for two weeks. At the end of two weeks, the erythema and inflammation had diminished, and improvement in rduced size of telangiectatic blood vessels was discernible. The rosacea lesions had approximately 25% improvement as judged by clinical evaluation.

[4] = skin plump / skin thickness test after topical application, caliper measurement; assay type: in vivo, human
Description: In one of the studies related to skin changes associated with aging, skin thickness was measured by micrometer calipers as follows.
The skin was grasped with a 2×6 cm metal hinge: the internal faces of which were coated with emery cloth to prevent slippage, and manually squeezed to threshold subject discomfort. Combined thickness of two whole-skin layers including thickness of the two hinge leaves was measured with micrometer calipers. Thickness of the two hinge leaves was subtracted to determine the actual thickness of two whole-skin layers. Triplicate measurements on treated sites were done and an average number was used for calculation of the skin thickness.
In other studies, test sites of skin 17 mm in diameter were used, the circular sites were marked with permanent ink. Intervening control sites were also 17 mm in diameter. Thickness of skin of all sites was measured directly by means of an electronic digital caliper. In this instance the jaws of the caliper were opened to 17 mm, applied with pressure to the skin sites and then closed to firm tightness. Thickness of skin was then read off the screen of the calipers. Measurements of all sites were made in triplicates. […]

[5] = topical treatment of chronic inflammation, erythema, eczema with thick scales and itch, clinical evaluation; assay type: in vivo, human; conditions: Example 10: subject, -NH2 0.3% and -OEt 0.5% (w/v) in WEP442
Text: The involved skin was divided into two lesions for testing. The subject topically applied twice daily to one lesion, N-Ac-L-Tyr-L-Tyr-L-Tyr-NH2 0.3% (w/v) in WEP442, pH 5.9 solution composition, prepared according to Example 2, and to second lesion, N-Ac-L-Tyr-L-Tyr-L-Tyr-OEt 0.5% (w/v) in WEP 442, pH 6.0, prepared according to Example 2. […] The treated skin had 90-95% improvement as judged by clinical evaluation.

[6] = knee osteoarthritis, intra-articular injections; assay type: in vivo, human; conditions: Example 18: subject
Description: A subject had severe osteoarthritis of both knees for more than four years. Prior therapy had included intra-articular injections of corticosteroids and hyaluronic acid as well as celecoxib (Celebrex) orally (200 mg) twice daily. Such therapy had provided only mild transitory relief of knee pain and edema, and edema of lower legs.
Intra-articular injections of 1% (w/v) N-Ac-L-Tyr-L-Tyr-L-Tyr-OH in water, 0.1 ml (1 mg) as prepared in Example 4 were administered to each knee. The pains in both knees disappeared about 20-30 minutes after the injections, and the relief of pains lasted for 24 hours. Edema and inflammation of the knees and lower legs had diminished for approximately the same 24 hour period. Repeat injections of the same composition were administered once a week for several weeks to provide continued relief of pain, edema and inflammation.
In another trial, intra-articular injections of 0.2% (w/v) N-Ac-L-Tyr-L-Tyr-L-Tyr-OEt with 1% (w/v) methyl cellulose in water, 0.5 ml (1 mg) as prepared in Example 4 were also administered to each knee at different times. The pains in both knees disappeared about 20-30 minutes after the injections, and the relief of pains lasted for 24 hours. Edema and inflammation of the knees and lower legs had diminished for approximately the same 24 hour period.
A subject had osteoarthritis of both knees for more than four years. […] Intra-articular injections of each knee with N-Ac-L-Tyr-L-Tyr-L-Tyr-OH, 7-13 mg in aqueous solution had provided substantial relief of pain in the joints for 2-3 days.
(§1) In yet another embodiment, the volunteer subject injected intra-articularly into a knee joint a test composition containing a N-acylpeptide derivative of the present invention to improve and reduce arthritic inflammation and pain of the joint.

[7] = summary of test results in volunteer subjects, efficacy grades; assay type: in vivo, human; conditions: efficacy grade
Text: Subject 1. Person had multiple red and itchy inflammation, dermatitis, or eczema lesions, which were resistant to conventional treatments including corticosteroids. Subject 2. Person had small red and itchy lesions which were resistant to topical corticosteroid treatment. Subject 3. Person had multiple red and itchy inflammation, dermatitis, or eczema lesions over the body for many years, which were resistant to conventional treatments including corticosteroids. Subject 4. Person had red and itchy inflammation, dermatitis, or eczema lesions for many years, which were resistant to topical corticosteroid treatment. Subject 5. Person had early stage of aging related skin changes on both forearms as indicated by age spots and wrinkled skin caused by solar damage. Subject 6. Person had age spots, keratoses and wrinkles on both forearms caused by intrinsic and extrinsic aging. Subject 7. Person had age spots, and wrinkles on both forearms caused by intrinsic and extrinsic aging. Subject 8. Person had osteoarthritis of both knees with inflammation and pain for more than 4 years, and had only mild transitory relief from conventional treatments. Subject 9. Person had sensitive skin with inflammatory lesions on the body. Subject 12. Person had dermatitis and inflammatory lesions on the left palm. Subject 14. Person had multiple age spots including lentigines and keratosis on their face. Subject 15. Person had psorisis Subject 16. Person had sensitive skin and eczema for more than 40 years
In another embodiment, the volunteer subject topically applied the test compositions containing N-acylpeptide derivatives of the present invention on involved skin or lesions once or twice daily for several weeks or until the involved lesions completely cleared and clinically changed to normal skin. As a control study, the subject also topically applied a vehicle control composition on the involved skin or lesions twice daily for the same period.
(§2) In yet another embodiment, the volunteer subject topically applied once or twice daily the test compositions containing N-acylpeptide derivatives of the present invention on the skin site above arthritic joints or painful muscles to provide therapeutic effects for the systemic disorders via topical administration.
as §1
Some test results are summarized as follows.
DK: Disturbed keratinization AG: Aging related changes of skin, nail and hair DI: Deranged immune disorders and inflammation ND: Nerve disorders CA: Tumors and/or cancers

[8] = knee osteoarthritis, topical maintenance therapy; assay type: in vivo, human; conditions: Example 25: subject, 1% (w/v) in EP73 topically 2-3 times daily on skin covering the knee areas
Text: as §2

Molecule	CA (Tumors and/or cancers) [1] [% Inhibition]	inter-metacarpal atrophy of left hand [2]	improvement of rosacea lesions as judged by clinical evaluation [3]	increase in skin thickness ([4]; Example 9: subject, severe photodamage, forearm spots, 0.5% (w/v) in WEP721 (spot A in WEP442) four times daily, 10 days)	increase in skin thickness ([4]; Example 19: subject, right extensor forearm, 0.8% (w/v) in WEP442 three times daily, four weeks)	skin condition of test site vs vehicle control ([4]; Example 20: subject, photoaging forearms, 0.5% (w/v) in WEP442 three times daily, four weeks)	increased skin thickness ([4]; Example 20: subject, photoaging forearms, 1% (w/v) in WEP442 three times daily, four weeks)	skin thickness on the back of left hand (average) ([4]; Example 24: subject, 2% (w/v) in EP73 two to three times daily, six weeks, starting thickness 1.70 mm) [mm]	increase over the starting skin thickness ([4]; Example 24: subject, back of left hand, 2% (w/v) in EP73 two to three times daily, six weeks) [%]	itch [5]	duration of relief of pains ([6]; intra-articular 1 mg each knee) [h]	period of diminished edema and inflammation of the knees and lower legs ([6]; intra-articular 1 mg each knee) [h]	time after injection until pains in both knees disappeared ([6]; intra-articular 1 mg each knee (-OH 1% in water 0.1 ml; -OEt 0.2% with 1% methyl cellulose 0.5 ml)) [min]	AG: Aging related changes of skin, nail and hair [7]	DI: Deranged immune disorders and inflammation [7]	DK: Disturbed keratinization [7]	ND: Nerve disorders [7]	knee joint pain under maintenance therapy [8]
CC(=O)N[C@@H](CCC(=O)O)C(=O)N[C@@H](CCC(=O)O)C(=O)N[C@@H](C)C(=O)N[C@@H](CO)C(=O)N1CCC[C@H]1C(=O)N[C@@H](CCC(=O)O)C(=O)N[C@@H](C)C(=O)N[C@H](C(=O)N[C@@H](C)C(=O)NCC(=O)N[C@H](C(=O)NCC(=O)N[C@H](C(=O)N[C@@H](CCC(=O)O)C(=O)N[C@@H](CO)C(=O)N[C@@H](CCCCN)C(N)=O)c1ccccc1)C(C)C)C(C)C [N-Ac-(EEASPEAVAGVGBESK)-NH2] (HELM PEPTIDE1{[ac].E.E.A.S.P.E.A.V.A.G.V.G.[Phg].E.S.K.[am]}$$$$V2.0)	9																	
N-Ac-L-Tyr-L-Tyr-L-Tyr-OEt		disappeared almost completely	approximately 25%	20-30%	approximately 33%	palpably raised, smooth, less wrinkled and increased in skin thickness	approximately 12%	2.59	52	stopped within a few minutes	24	~24	20 to 30	3+ (3+: 75% Efficacy)	3+ (3+: 75% Efficacy)	3+ (3+: 75% Efficacy)	4+ (4+: 95-100% Efficacy)	continued relief of knee joint pains
